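Results reflect a 48-hour exposure of cells in 96-well plates to compound at five concentrations. TGI is the concentration that stops growth completely.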
How the values were obtained:
Experiment in all cases: NCI anticancer screen, dose series, 48 h
EKVX NSCLC = test system: EKVX NSCLC
K-562 leukemia = test system: K-562 leukemia
SF-268 CNS = test system: SF-268 CNS
SF-295 CNS = test system: SF-295 CNS
SK-MEL-2 melanoma = test system: SK-MEL-2 melanoma
SNB-19 CNS = test system: SNB-19 CNS
SNB-75 CNS = test system: SNB-75 CNS

NC(=O)Nc1n[nH]c(-c2ccccc2)n1
TGI (EKVX NSCLC): > 100 µM
TGI (K-562 leukemia): > 100 µM
TGI (SF-268 CNS): > 100 µM
TGI (SF-295 CNS): > 100 µM
TGI (SK-MEL-2 melanoma): > 100 µM
TGI (SNB-19 CNS): > 100 µM
TGI (SNB-75 CNS): > 100 µM

O=c1[nH]nc(Cc2ccc([N+](=O)[O-])cc2)[nH]1
TGI (EKVX NSCLC): > 100 µM
TGI (K-562 leukemia): > 100 µM
TGI (SF-268 CNS): > 100 µM
TGI (SF-295 CNS): > 100 µM
TGI (SK-MEL-2 melanoma): > 100 µM
TGI (SNB-19 CNS): > 100 µM
TGI (SNB-75 CNS): > 100 µM

CC(C)(CN1CCCCC1)C(=O)CC(SCCS(=O)(=O)O)c1ccc(Cl)c(Cl)c1 (centres undefined)
TGI (EKVX NSCLC): 18 µM
TGI (SF-268 CNS): 15.1 µM
TGI (SF-295 CNS): 15.8 µM
TGI (SK-MEL-2 melanoma): 57.3 µM
TGI (SNB-19 CNS): 23.1 µM

OCC1=C[C@@](COCc2ccccc2)(OCc2ccccc2)[C@@H](OCc2ccccc2)[C@@H]1OCc1ccccc1
TGI (EKVX NSCLC): 51.4 µM
TGI (K-562 leukemia): 50.6 µM
TGI (SF-268 CNS): > 100 µM
TGI (SF-295 CNS): 46.7 µM
TGI (SK-MEL-2 melanoma): 39.3 µM
TGI (SNB-19 CNS): > 100 µM

CC(CN(C)C)C(O)(c1ccccc1)c1ccccc1 (centres undefined)
TGI (EKVX NSCLC): > 100 µM
TGI (K-562 leukemia): > 100 µM
TGI (SF-268 CNS): > 100 µM
TGI (SF-295 CNS): > 100 µM
TGI (SK-MEL-2 melanoma): > 100 µM
TGI (SNB-19 CNS): > 100 µM
TGI (SNB-75 CNS): > 100 µM

CN1C(C(=O)Nc2ccccn2)=C(O)c2ccccc2S1(=O)=O
TGI (EKVX NSCLC): > 100 µM
TGI (SF-268 CNS): > 100 µM
TGI (SF-295 CNS): > 100 µM
TGI (SK-MEL-2 melanoma): > 100 µM
TGI (SNB-19 CNS): > 100 µM
TGI (SNB-75 CNS): > 100 µM

Cc1nc(-c2ccc(Cl)cc2)cn2c1nc1ccccc12
TGI (EKVX NSCLC): > 100 µM
TGI (K-562 leukemia): > 100 µM
TGI (SF-268 CNS): > 100 µM
TGI (SF-295 CNS): > 100 µM
TGI (SK-MEL-2 melanoma): > 100 µM
TGI (SNB-19 CNS): > 100 µM
TGI (SNB-75 CNS): > 100 µM

CNc1ccc([N+](=O)[O-])cc1C(=O)N1CCC[C@H]1CO
TGI (EKVX NSCLC): > 100 µM
TGI (K-562 leukemia): > 100 µM
TGI (SF-268 CNS): > 100 µM
TGI (SF-295 CNS): > 100 µM
TGI (SK-MEL-2 melanoma): > 100 µM
TGI (SNB-19 CNS): > 100 µM
TGI (SNB-75 CNS): > 100 µM

CCOc1cc(C=Nc2ccc(Oc3ccc(Cl)cc3)c(Cl)c2)ccc1O
TGI (EKVX NSCLC): 41.3 µM
TGI (SF-268 CNS): 32 µM
TGI (SF-295 CNS): 38.8 µM
TGI (SK-MEL-2 melanoma): 56.4 µM
TGI (SNB-19 CNS): 62.1 µM
TGI (SNB-75 CNS): 45.7 µM

C[C@@H](CC(O)C(O)C(C)(C)O)C1CCC23CC12CCC1[C@@]2(C)CCC(=O)C(C)(C)C2CC(OC2OC(CO)C(O)C(O)C2O)[C@]13C (some centres undefined)
TGI (EKVX NSCLC): > 10 µM
TGI (K-562 leukemia): > 10 µM
TGI (SF-268 CNS): > 10 µM
TGI (SF-295 CNS): > 10 µM
TGI (SK-MEL-2 melanoma): > 10 µM
TGI (SNB-19 CNS): > 10 µM
TGI (SNB-75 CNS): > 10 µM

CCCCC[C@@H]1OC(=O)[C@@]2(CC3c4ccccc4C2c2ccccc23)[C@H]1C(=O)OC
TGI (EKVX NSCLC): > 100 µM
TGI (K-562 leukemia): > 100 µM
TGI (SF-268 CNS): > 100 µM
TGI (SF-295 CNS): > 100 µM
TGI (SK-MEL-2 melanoma): > 100 µM
TGI (SNB-19 CNS): > 100 µM

CC(=O)Nc1oc(C)nc1C#N
TGI (EKVX NSCLC): > 100 µM
TGI (K-562 leukemia): > 100 µM
TGI (SF-268 CNS): > 100 µM
TGI (SK-MEL-2 melanoma): > 100 µM
TGI (SNB-19 CNS): > 100 µM

Oc1cc(Br)cc2cc(Br)cnc12
TGI (EKVX NSCLC): 37.4 µM
TGI (K-562 leukemia): 94.2 µM
TGI (SF-268 CNS): > 100 µM
TGI (SF-295 CNS): 28 µM
TGI (SNB-19 CNS): > 100 µM
TGI (SNB-75 CNS): > 100 µM

C[N+](C)(C)c1nc(N)nc2c1ncn2C1OC(CO)C(O)C1O (centres undefined)
TGI (EKVX NSCLC): > 100 µM
TGI (K-562 leukemia): > 100 µM
TGI (SF-268 CNS): > 100 µM
TGI (SK-MEL-2 melanoma): > 100 µM
TGI (SNB-19 CNS): > 100 µM
TGI (SNB-75 CNS): > 100 µM

Cn1cnc([N+](=O)[O-])c1Sc1nncc2[nH]cnc12
TGI (EKVX NSCLC): > 100 µM
TGI (K-562 leukemia): > 100 µM
TGI (SF-295 CNS): > 100 µM
TGI (SK-MEL-2 melanoma): > 100 µM
TGI (SNB-19 CNS): > 100 µM
TGI (SNB-75 CNS): > 100 µM

From PubChem BioAssay (NCI)
